molecular target: T1, p53 Y220C (Homo sapiens, UniProt P04637, Y220C); test: In vitro DNA binding activity assay (HTRF / TR-FRET): stabilization of p53 Y220C and increase of its DNA binding activity; assay type: biochemical; details: recombinant His-tagged p53 Y220C DNA binding domain (aa 94-312), biotin-labeled consensus DNA, incubated at 27° C. or 29° C. for 60 min
T1 construct: The recombinant protein was a truncation mutant containing only amino acids 94-312 of p53; made in house; host or cells: E. coli
In short: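 Compounds from 4.5 mM DMSO stocks, 3-fold serial dilutions; room-temperature incubations of 15 and 20 min. SC150 = concentration raising DNA binding by 50% over no-compound control.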

T1 sequence (P04637 94-312, change not shown): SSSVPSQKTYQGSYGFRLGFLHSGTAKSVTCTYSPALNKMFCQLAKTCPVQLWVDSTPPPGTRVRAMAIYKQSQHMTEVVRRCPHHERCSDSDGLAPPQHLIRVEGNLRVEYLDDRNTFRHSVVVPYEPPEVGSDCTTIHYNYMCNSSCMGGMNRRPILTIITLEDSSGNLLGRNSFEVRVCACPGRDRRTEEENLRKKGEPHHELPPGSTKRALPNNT

| SMILES | SC150 (concentration of the compound required to increase the DNA binding activity by 50%) |
| --- | --- |
| COc1cc(S(N)(=O)=O)ccc1NCC#Cc1cc2c(NC3CCN(C(=O)C(C)O)CC3)cccc2n1CC(F)(F)F (stereo not drawn) [Compound 745A] | + (+ = 0 μM ≤ SC150 < 0.05 μM) |
| COc1cc(S(C)(=O)=O)ccc1NCC#Cc1cc2c(NC3CCN(C(=O)CC#N)CC3)cccc2n1CC(F)(F)F [Compound 746A] | + (+ = 0 μM ≤ SC150 < 0.05 μM) |
| COc1cc(S(N)(=O)=O)ccc1NCC#Cc1cc2c(NC3CCN(C(=O)CC#N)CC3)cccc2n1CC(F)(F)F [Compound 747A] | + (+ = 0 μM ≤ SC150 < 0.05 μM) |
| COc1cc(S(N)(=O)=O)ccc1NCC#Cc1cc2c(NC3CCN(C(=O)CO)CC3)cccc2n1CC(F)(F)F [Compound 748A] | + (+ = 0 μM ≤ SC150 < 0.05 μM) |
| COc1cc(S(N)(=O)=O)ccc1NCC#Cc1cc2c(NC3CCN(C(C)=O)CC3)cccc2n1CC(F)(F)F [Compound 749A, 4-[(3-{4-[(1-acetylpiperidin-4-yl)amino]-1-(2,2,2-trifluoroethyl)-1H-indol-2-yl}prop-2-yn-1-yl)amino]-3-methoxybenzene-1-sulfonamide] | + (+ = 0 μM ≤ SC150 < 0.05 μM) |
| COc1cc(S(C)(=O)=O)ccc1NCC#Cc1cc2c(NC3CCN(C(=O)CN(C)C)CC3)cccc2n1CC(F)(F)F [Compound 750A] | + (+ = 0 μM ≤ SC150 < 0.05 μM) |
| COc1cc(S(N)(=O)=O)ccc1NCC#Cc1cc2c(NC3CCN(C(=O)CN(C)C)CC3)cccc2n1CC(F)(F)F [Compound 751A] | + (+ = 0 μM ≤ SC150 < 0.05 μM) |
| COc1cc(S(C)(=O)=O)ccc1NCC#Cc1cc2c(NC3CCN(C(=O)C(C)C)CC3)cccc2n1CC(F)(F)F [Compound 752A] | + (+ = 0 μM ≤ SC150 < 0.05 μM) |
| COc1cc(S(N)(=O)=O)ccc1NCC#Cc1cc2c(NC3CCN(C(=O)C(C)C)CC3)cccc2n1CC(F)(F)F [Compound 753A] | + (+ = 0 μM ≤ SC150 < 0.05 μM) |
| COc1cc(S(=O)(=O)N(C)C)ccc1NCC#Cc1cc2c(NC3CCN(C(C)=O)CC3)cccc2n1CC(F)(F)F [Compound 755A, 4-[(3-{4-[(1-acetylpiperidin-4-yl)amino]-1-(2,2,2-trifluoroethyl)-1H-indol-2-yl}prop-2-yn-1-yl)amino]-3-methoxy-N,N-dimethylbenzene-1-sulfonamide] | + (+ = 0 μM ≤ SC150 < 0.05 μM) |
| CCC(=O)N1CCC(Nc2cccc3c2cc(C#CCNc2ccc(S(C)(=O)=O)cc2OC)n3CC(F)(F)F)CC1 [Compound 756A] | + (+ = 0 μM ≤ SC150 < 0.05 μM) |
| CCC(=O)N1CCC(Nc2cccc3c2cc(C#CCNc2ccc(S(N)(=O)=O)cc2OC)n3CC(F)(F)F)CC1 [Compound 757A] | + (+ = 0 μM ≤ SC150 < 0.05 μM) |
| COc1cc(S(=O)(=O)N2CCOCC2)ccc1NCC#Cc1cc2c(NC3CCN(C(C)=O)CC3)cccc2n1CC(F)(F)F [Compound 758A, 1-(4-{1[2-(3-{1[2-methoxy-4-(morpholine-4-sulfonyl)phenyl]amino}prop-1-yn-1-yl)-1-(2,2,2-trifluoroethyl)-1H-indol-4-yl]amino}piperidin-1-yl)ethan-1-one] | + (+ = 0 μM ≤ SC150 < 0.05 μM) |
| COc1cc(S(N)(=O)=O)ccc1NCC#Cc1cc2c(NC3CCN(C[C@H]4COC(=O)O4)CC3)cccc2n1CC(F)(F)F [Compound 759A, 3-methoxy-4-[(3-{4-[(1-{[(4S)-2-oxo-1,3-dioxolan-4-yl]methyl}piperidin-4-yl)amino]-1-(2,2,2-trifluoroethyl)-1H-indol-2-yl}prop-2-yn-1-yl)amino]benzene-1-sulfonamide] | + (+ = 0 μM ≤ SC150 < 0.05 μM) |
| COc1cc(S(=O)(=O)NC(C)=O)ccc1NCC#Cc1cc2c(NC3CCN(CC4COC(=O)O4)CC3)cccc2n1CC(F)(F)F (stereo not drawn) [Compound 761A, N-[3-methoxy-4-({3-[4-({1-[(2-oxo-1,3-dioxolan-4-yl)methyl]piperidin-4-yl}amino)-1-(2,2,2-trifluoroethyl)-1H-indol-2-yl]prop-2-yn-1-yl}amino)benzenesulfonyl]acetamide] | + (+ = 0 μM ≤ SC150 < 0.05 μM) |
| CNC(=O)c1ccc(NCC#Cc2cc3c(NC4CCN(CC5COC(=O)O5)CC4)cccc3n2CC(F)(F)F)c(OC)c1 (stereo not drawn) [Compound 762A, 3-methoxy-N-methyl-4-({3-[4-({1-[(2-oxo-1,3-dioxolan-4-yl)methyl]piperidin-4-yl}amino)-1-(2,2,2-trifluoroethyl)-1H-indol-2-yl]prop-2-yn-1-yl}amino)benzamide] | + (+ = 0 μM ≤ SC150 < 0.05 μM) |
| COc1cc(S(C)(=O)=O)ccc1NCC#Cc1cc2c(N[C@@H]3CCN4CCC[C@H]4C3)cccc2n1CC(F)(F)F [Compound 764A, N-[(7R,8aS)-octahydroindolizin-7-yl]-2-{3-[(4-methanesulfonyl-2-methoxyphfenyl)amino]prop-1-yn-1-yl}-1-(2,2,2-trifluoroethyl)-1H-indol-4-amine] | + (+ = 0 μM ≤ SC150 < 0.05 μM) |
| COc1cc(S(C)(=O)=O)ccc1NCC#Cc1cc2c(N[C@@H]3CCN4CCC[C@@H]4C3)cccc2n1CC(F)(F)F [Compound 765A, N-[(7R,8aR)-octahydroindolizin-7-yl]-2-{3-[(4-methanesulfonyl-2-methoxyphenyl)amino]prop-1-yn-1-yl}-1-(2,2,2-trifluoroethyl)-1H-indol-4-amine] | + (+ = 0 μM ≤ SC150 < 0.05 μM) |
| COc1cc(S(C)(=O)=O)ccc1NCC#Cc1cc2c(N[C@H]3CCN(C)C[C@@H]3F)cccc2n1CC(F)(F)F [Compound 771A] | + (+ = 0 μM ≤ SC150 < 0.05 μM) |
| COc1cc(S(C)(=O)=O)ccc1NCC#Cc1cc2c(N[C@@H]3CCN(C)C[C@@H]3F)cccc2n1CC(F)(F)F [Compound 772A, N-[(3S,4R)-3-fluoro-1-methylpiperidin-4-yl]-2-{3-[(4-methanesulfonyl-2-methoxyphenyl)amino]prop-1-yn-1-yl}-1-(2,2,2-trifluoroethyl)-1H-indol-4-amine] | + (+ = 0 μM ≤ SC150 < 0.05 μM) |
| COc1cc(C(=O)O)ccc1NCC#Cc1cc2c(N[C@H]3CCN(C)C[C@H]3F)cccc2n1CC(F)(F)F [Compound 780A, 4-{[3-(4-{[(3R,4S)-3-fluoro-1-methylpiperidin-4-yl]amino}-1-(2,2,2-trifluoroethyl)-1H-indol-2-yl)prop-2-yn-1-yl]amino}-3-methoxybenzoic acid] | + (+ = 0 μM ≤ SC150 < 0.05 μM) |
| COc1cc(C(=O)O)ccc1NCC#Cc1cc2c(N[C@@H]3CCN(C)C[C@@H]3F)cccc2n1CC(F)(F)F [Compound 781A, 4-{[3-(4-{[(3S,4R)-3-fluoro-1-methylpiperidin-4-yl]amino}-1-(2,2,2-trifluoroethyl)-1H-indol-2-yl)prop-2-yn-1-yl]amino}-3-methoxybenzoic acid] | + (+ = 0 μM ≤ SC150 < 0.05 μM) |
| COc1cc(C(=O)O)ccc1NCC#Cc1cc2c(N[C@@H]3CCN(C)C[C@H]3F)cccc2n1CC(F)(F)F [Compound 788A, 4-{[3-(4-{[(3R,4R)-3-fluoro-1-methylpiperidin-4-yl]amino}-1-(2,2,2-trifluoroethyl)-1H-indol-2-yl)prop-2-yn-1-yl]amino}-3-methoxybenzoic acid] | + (+ = 0 μM ≤ SC150 < 0.05 μM) |
| COc1cc(C(=O)O)ccc1NCC#Cc1cc2c(N[C@H]3CCN(C)C[C@@H]3F)cccc2n1CC(F)(F)F [Compound 789A, 4-{[3-(4-{[(3S,4S)-3-fluoro-1-methylpiperidin-4-yl]amino}-1-(2,2,2-trifluoroethyl)-1H-indol-2-yl)prop-2-yn-1-yl]amino}-3-methoxybenzoic acid] | ++ (++ = 0.05 μM ≤ SC150 < 0.1 μM) |
| COc1cc(S(N)(=O)=O)ccc1NCC#Cc1cc2c(N[C@H]3CCN(C)C[C@H]3F)cccc2n1CC(F)(F)F [Compound 790A, 4-{[3-(4-{[(3R,4S)-3-fluoro-1-methylpiperidin-4-yl]amino}-1-(2,2,2-trifluoroethyl)-1H-indol-2-yl)prop-2-yn-1-yl]amino}-3-methoxybenzene-1-sulfonamide] | + (+ = 0 μM ≤ SC150 < 0.05 μM) |
| COc1cc(S(N)(=O)=O)ccc1NCC#Cc1cc2c(N[C@@H]3CCN(C)C[C@@H]3F)cccc2n1CC(F)(F)F [Compound 791A, 4-{[3-(4-{[(3S,4R)-3-fluoro-1-methylpiperidin-4-yl]amino}-1-(2,2,2-trifluoroethyl)-1H-indol-2-yl)prop-2-yn-1-yl]amino}-3-methoxybenzene-1-sulfonamide] | + (+ = 0 μM ≤ SC150 < 0.05 μM) |
| COc1cc(C(N)=O)ccc1NCC#Cc1cc2c(N[C@@H]3CCN(C)C[C@@H]3F)cccc2n1CC(F)(F)F [Compound 800A, 4-{[3-(4-{[(3S,4R)-3-fluoro-1-methylpiperidin-4-yl]amino}-1-(2,2,2-trifluoroethyl)-1H-indol-2-yl)prop-2-yn-1-yl]amino}-3-methoxybenzamide] | + (+ = 0 μM ≤ SC150 < 0.05 μM) |

— patent US12428406B2 (PMV Pharmaceuticals, Inc., priority 2019, dated 2025)
